Measured values: patent US8895733B2 (Novartis AG, priority 2010, dated 2014)
pIC50: −log10 of the molar value.

Legend:
[1] = tested on: inflammatory pain induced by intraplantar injection of Complete Freund's Adjuvant; test: FCA (Freund's Complete Adjuvant) test, model of inflammatory pain; assay type: in vivo; conditions: rat, tested 72 h post FCA injection
Experimental: Compounds of formula (I) may show analgesic activity in the FCA (Freund's Complete Adjuvant) test in the rat, a model of inflammatory pain which is induced by intraplantar injection of Complete Freund's Adjuvant (Stein et al. Pharmac. Biochem. Behav., 1988, 31, 445-451). […] Thus, the local anesthetic effect may not mask the analgesic properties of the compounds (Scott et al., British Journal of Anaesthesia, 1988, 61, 165-8). […] All compounds were tested 72 h post FCA injection.

Nav 1.7 [2] = target: T1, Nav 1.7 (Homo sapiens, UniProt Q15858); test: Whole-cell voltage clamp electrophysiology, manual patch clamp (marker b in Table of Examples); assay type: cell-based; conditions: marker b: Manual patch clamp data; read-out: Nav 1.7 activity
T1 construct: expressed in transfected cells
T1 sequence (Q15858 whole entry): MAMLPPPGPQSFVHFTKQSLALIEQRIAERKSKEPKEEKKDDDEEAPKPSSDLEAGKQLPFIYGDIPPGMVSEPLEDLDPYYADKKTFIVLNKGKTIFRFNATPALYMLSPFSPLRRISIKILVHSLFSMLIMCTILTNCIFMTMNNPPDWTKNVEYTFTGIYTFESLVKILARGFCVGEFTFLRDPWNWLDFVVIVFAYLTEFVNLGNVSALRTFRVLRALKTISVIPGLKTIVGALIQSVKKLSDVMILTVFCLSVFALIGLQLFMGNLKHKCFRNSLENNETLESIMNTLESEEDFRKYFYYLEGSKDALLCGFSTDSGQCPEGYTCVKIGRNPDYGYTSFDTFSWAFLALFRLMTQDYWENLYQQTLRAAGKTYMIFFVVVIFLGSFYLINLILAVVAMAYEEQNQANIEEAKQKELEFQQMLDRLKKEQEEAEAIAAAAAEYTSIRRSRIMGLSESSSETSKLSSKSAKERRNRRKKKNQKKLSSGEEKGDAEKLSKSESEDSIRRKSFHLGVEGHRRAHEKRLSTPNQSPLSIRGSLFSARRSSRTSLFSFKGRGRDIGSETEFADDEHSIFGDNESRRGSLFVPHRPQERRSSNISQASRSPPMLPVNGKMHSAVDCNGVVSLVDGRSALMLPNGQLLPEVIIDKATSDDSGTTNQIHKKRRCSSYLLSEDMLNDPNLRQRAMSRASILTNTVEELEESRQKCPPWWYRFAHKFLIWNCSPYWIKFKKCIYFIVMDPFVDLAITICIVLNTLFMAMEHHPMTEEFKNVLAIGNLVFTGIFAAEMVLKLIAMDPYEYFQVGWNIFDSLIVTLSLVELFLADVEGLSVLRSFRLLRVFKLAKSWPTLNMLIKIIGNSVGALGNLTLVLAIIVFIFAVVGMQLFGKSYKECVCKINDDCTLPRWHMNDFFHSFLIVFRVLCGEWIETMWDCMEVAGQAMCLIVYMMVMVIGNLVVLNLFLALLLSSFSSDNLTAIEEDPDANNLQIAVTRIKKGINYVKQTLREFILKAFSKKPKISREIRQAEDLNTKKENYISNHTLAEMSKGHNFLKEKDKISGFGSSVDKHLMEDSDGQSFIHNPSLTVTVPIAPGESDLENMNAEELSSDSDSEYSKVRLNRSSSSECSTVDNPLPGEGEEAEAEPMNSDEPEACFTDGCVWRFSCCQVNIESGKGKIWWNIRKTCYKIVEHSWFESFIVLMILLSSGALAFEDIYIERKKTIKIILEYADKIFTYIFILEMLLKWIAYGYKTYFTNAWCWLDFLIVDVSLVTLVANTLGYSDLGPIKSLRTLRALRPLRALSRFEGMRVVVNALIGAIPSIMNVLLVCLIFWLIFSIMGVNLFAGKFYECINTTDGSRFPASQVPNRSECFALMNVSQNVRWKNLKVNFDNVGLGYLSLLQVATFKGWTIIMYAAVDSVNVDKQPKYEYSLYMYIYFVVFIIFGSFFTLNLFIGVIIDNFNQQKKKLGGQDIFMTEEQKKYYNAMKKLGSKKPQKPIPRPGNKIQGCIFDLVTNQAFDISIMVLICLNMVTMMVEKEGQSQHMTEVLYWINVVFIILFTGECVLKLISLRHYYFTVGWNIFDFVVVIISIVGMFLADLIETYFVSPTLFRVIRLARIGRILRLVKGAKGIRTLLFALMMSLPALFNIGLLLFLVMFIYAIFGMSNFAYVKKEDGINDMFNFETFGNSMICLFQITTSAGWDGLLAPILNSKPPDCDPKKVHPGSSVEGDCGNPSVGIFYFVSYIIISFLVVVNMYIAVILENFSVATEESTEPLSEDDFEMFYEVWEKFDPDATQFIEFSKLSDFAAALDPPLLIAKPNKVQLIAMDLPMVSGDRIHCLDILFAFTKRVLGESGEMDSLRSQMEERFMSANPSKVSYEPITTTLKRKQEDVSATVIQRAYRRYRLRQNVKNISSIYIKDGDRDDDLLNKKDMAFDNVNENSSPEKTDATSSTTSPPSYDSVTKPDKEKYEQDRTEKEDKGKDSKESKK
Outline: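 Manual whole-cell patch clamp on cells expressing human NaV1.7, compounds applied by microperfusion. Protocol biased to inactivated-state block: holding −60 mV, hyperpolarizing step −120 mV for 100 ms, then depolarization to −20 mV for 25 ms, pulses at 0.1 Hz.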

Nav1.5 [3] = target: T2, Nav1.5 (Homo sapiens, UniProt Q14524); test: Inhibition of Nav1.5 as measured using QPatch; assay type: cell-based
T2 construct: expressed in transfected cells
T2 sequence (Q14524 whole entry): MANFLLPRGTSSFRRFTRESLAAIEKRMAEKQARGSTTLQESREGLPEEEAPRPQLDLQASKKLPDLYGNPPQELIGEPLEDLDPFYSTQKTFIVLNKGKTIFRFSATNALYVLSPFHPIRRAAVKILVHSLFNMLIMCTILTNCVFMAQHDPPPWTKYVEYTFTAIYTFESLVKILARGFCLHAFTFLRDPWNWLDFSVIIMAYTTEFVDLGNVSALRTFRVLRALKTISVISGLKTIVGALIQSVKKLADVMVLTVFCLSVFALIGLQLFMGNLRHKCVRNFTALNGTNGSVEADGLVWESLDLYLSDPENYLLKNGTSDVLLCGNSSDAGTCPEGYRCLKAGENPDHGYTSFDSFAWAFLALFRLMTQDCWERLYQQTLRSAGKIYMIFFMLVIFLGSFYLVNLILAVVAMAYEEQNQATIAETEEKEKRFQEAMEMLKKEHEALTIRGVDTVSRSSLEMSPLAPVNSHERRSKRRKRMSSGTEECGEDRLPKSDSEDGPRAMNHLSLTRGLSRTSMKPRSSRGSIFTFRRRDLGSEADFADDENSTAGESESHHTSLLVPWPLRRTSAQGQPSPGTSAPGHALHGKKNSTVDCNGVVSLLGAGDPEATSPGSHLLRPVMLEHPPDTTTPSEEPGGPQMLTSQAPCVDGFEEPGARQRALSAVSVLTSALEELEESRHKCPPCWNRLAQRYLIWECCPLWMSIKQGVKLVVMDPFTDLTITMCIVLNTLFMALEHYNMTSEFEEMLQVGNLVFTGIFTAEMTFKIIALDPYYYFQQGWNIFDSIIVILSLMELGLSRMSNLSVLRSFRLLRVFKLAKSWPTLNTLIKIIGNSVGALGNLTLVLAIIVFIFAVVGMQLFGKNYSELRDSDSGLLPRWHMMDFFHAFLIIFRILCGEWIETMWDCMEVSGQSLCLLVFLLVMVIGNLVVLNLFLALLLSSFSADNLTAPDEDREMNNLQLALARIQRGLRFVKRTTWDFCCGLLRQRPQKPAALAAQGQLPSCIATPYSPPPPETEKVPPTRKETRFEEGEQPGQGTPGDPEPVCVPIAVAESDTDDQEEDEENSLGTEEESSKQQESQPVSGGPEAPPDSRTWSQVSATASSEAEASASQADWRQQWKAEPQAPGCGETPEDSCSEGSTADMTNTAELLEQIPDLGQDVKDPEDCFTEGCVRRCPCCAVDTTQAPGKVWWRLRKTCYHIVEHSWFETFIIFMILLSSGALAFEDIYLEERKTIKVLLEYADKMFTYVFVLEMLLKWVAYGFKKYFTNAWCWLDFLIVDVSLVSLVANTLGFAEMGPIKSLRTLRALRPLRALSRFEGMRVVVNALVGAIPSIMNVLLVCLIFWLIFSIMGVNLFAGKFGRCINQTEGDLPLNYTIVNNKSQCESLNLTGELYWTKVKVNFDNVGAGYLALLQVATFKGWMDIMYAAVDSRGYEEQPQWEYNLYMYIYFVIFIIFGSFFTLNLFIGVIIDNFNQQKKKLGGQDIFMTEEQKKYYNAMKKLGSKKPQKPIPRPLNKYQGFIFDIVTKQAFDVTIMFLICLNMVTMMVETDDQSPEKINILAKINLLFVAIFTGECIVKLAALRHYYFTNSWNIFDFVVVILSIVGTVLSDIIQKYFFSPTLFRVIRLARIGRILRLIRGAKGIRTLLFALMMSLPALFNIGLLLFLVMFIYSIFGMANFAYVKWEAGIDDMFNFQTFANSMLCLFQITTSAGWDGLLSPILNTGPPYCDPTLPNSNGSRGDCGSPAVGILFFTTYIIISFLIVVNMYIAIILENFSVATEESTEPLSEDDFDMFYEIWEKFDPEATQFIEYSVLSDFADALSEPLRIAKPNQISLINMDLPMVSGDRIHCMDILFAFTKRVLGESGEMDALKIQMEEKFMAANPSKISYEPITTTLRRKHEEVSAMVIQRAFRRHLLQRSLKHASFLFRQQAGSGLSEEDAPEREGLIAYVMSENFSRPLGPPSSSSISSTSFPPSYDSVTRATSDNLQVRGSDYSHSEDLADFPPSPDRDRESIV
Text: (§1) Patch-clamp electrophysiology is considered the gold standard technique for investigation of ion channel function and pharmacology. Using this method, sodium channel currents can be measured in cells, which stably (or transiently) express the sodium channel subtype of interest. Application of compounds during such experiments provides a functional measure of the activity and potency of compounds affecting the ion channel of interest.
(§2) Electrophysiological studies can be performed using automated or manual patch-clamp techniques. Automated patch-clamp instruments suitable for this work include the Ion Works HT (MDS), Ion Works Quattro (MDS), PatchLiner (Nanion technologies), Port-A-Patch (Nanion technologies), QPatch (Sophion) or any other suitable platform.
(§3) For recording in automated patch-clamp instruments, cells expressing the voltage-gated sodium channel subtype of interest are dispensed in appropriate chips (plates with more than one recording chambers each containing one or more apertures to generate whole-cell patches), as provided by the manufacturer. Typically, the whole-cell perforated patch configuration is used for probing the pharmacology of compounds in automated patch-clamp electrophysiology on sodium channels. Extracellular and intracellular buffers for such experiments are composed according to the literature, or according to the instructions provided by the manufacturer of the instruments. Test solutions, which contain the compounds to be tested, are applied to the cells expressing the sodium channel of interest by a pipetting system, typically integrated into the robots.
(§4) A suitable voltage stimulus protocol is used to activate voltage-gated sodium channel proteins of interest. A typical stimulus protocol may consist of sweeps of sequential voltage pulses starting from a holding potential (i.e. −65 mV), to a more positive and depolarising test pulse potential (i.e. −10 mV) and finally to a more negative and hyperpolarising potential (i.e. −100 mV). According to the biophysics of the voltage-gated ion channel of interest and interest in channel configuration the voltages and durations of the pulses as well as the overall frequency of sweeps applied might vary. Accordingly, a stimulus protocol was designed to assess compounds due to their potential to block NaV1.7 channels primarily in inactivated state. Selectivity over other voltage-gated sodium channel members was assessed by protocols that reflect the native function of the channels (i.e. heart rate or firing of neurons).
Inhibition of Nav1.5 by Compounds of formula (I) as measured using QPatch

Nav 1.7 [4] = target: T1, Nav 1.7; test: Whole-cell voltage clamp electrophysiology, IonWorks Quattro (marker a in Table of Examples); assay type: cell-based; conditions: marker a: IonWork Quattro data; read-out: Nav 1.7 activity
Text: (§5) a.IonWork Quattro data, b=Manual patch clamp data, c=Automated patch clamp data M=Method
Whole-Cell Voltage Clamp Electrophysiology Assay
as §1, §2, §3, §4

Nav 1.7 [5] = target: T1, Nav 1.7; test: Whole-cell voltage clamp electrophysiology, automated patch clamp (marker c in Table of Examples); assay type: cell-based; conditions: marker c: Automated patch clamp data; read-out: Nav 1.7 activity
Outline: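 Human NaV1.7 currents were recorded by whole-cell automated patch clamp, on IonWorks Quattro or another automated platform, typically in perforated-patch configuration. The stimulus protocol was designed to probe block mainly of the inactivated state, with a typical sweep stepping from about −65 mV holding to −10 mV, then −100 mV.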

Nav 1.7 [6] = target: T1, Nav 1.7; test: Nav 1.7 activity in Table of Examples, no platform marker printed; assay type: cell-based; conditions: no marker a/b/c printed in the cell
Text: as §5

Nav1.5 [7] = target: T2, Nav1.5; test: Inhibition of Nav1.5 as measured using manual patch clamp; assay type: cell-based
Text: as §1
Electrophysiological studies can also be performed using the whole cell configuration of the standard manual patch clamp technique as described in the literature (e.g. Pflugers Arch., 1981, 391(2), 85-100). In this assay, cells that express the voltage-gated sodium channel protein of interest are exposed to the drugs by conventional microperfusion systems, or by a home-built perfusion system. A suitable voltage stimulus protocol is used to activate the voltage-gated sodium channels.
as §4
Electrophysiological studies can also be performed using the whole cell configuration of the standard manual patch clamp technique as described in the literature (e.g. Pflugers Arch., 1981, 391(2), 85-100). In this assay, cells that express the human voltage-gated sodium channel protein of interest are exposed to the drugs by conventional microperfusion systems, or by a home-built perfusion system. A suitable voltage stimulus protocol is used to activate the voltage-gated sodium channels. A suitable voltage stimulus protocol may consist of sequential voltage pulses from a holding potential, each first hyperpolarizing the cell, then depolarizing the channels for a brief period. A particularly suitable holding potential may be a voltage allowing a fraction of channels to remain in an inactivated state, like −60 mV. A suitable hyperpolarizing voltage and duration may be −120 mV for 100 ms, and depolarization voltage and duration may be −20 mV for 25 ms, and a suitable frequency of pulses may be 0.1 Hz, but may also have other parameters. Accordingly, a stimulus protocol was designed to assess compounds due to their potential to block NaV1.7 channels primarily in inactivated state. Selectivity over other voltage-gated sodium channel members was assessed by protocols that reflect the native function of the channels (i.e. heart rate or firing of neurons).
Inhibition of Nav1.5 by Compounds of formula (I) as measured using manual patch clamp

pIC50 (Nav 1.7 [2]) | pIC50 (Nav 1.7 [4]) | SMILES | pIC50 (Nav1.5 [3]) | other results
7.36 |  | Nc1nc(Nc2ccccc2)nc(-c2noc(-c3nccs3)n2)n1 [Example 130, N-Phenyl-6-(5-thiazol-2-yl-[1,2,4]oxadiazol-3-yl)-[1,3,5]triazine2,4-diamine] | 5.78 | analgesic efficacy in FCA test ([1]; 1 mg/kg p.o.): efficacious
 | > 6.00 | Nc1nc(-c2noc(-c3ccco3)n2)nc(N2CCc3ccccc32)n1 [Example 22, 4-(2,3-Dihydro-indol-1-yl)-6-(5-furan-2-yl-[1,2,4]oxadiazol-3-yl)-[1,3,5]triazin-2-ylamine] |  | 
 | > 6.30 | COc1cccc(-c2nc(-c3nc(N)nc(N(C)c4ccccc4)n3)no2)c1 [Example 24, 6-[5-(3-Methoxy-phenyl)-[1,2,4]oxadiazol-3-yl]-N-methyl-N-phenyl-[1,3,5]triazine-2,4-diamine] |  | 
6.09 |  | CN(c1ccccc1)c1nc(N)nc(-c2noc(C(=O)NCc3ccccc3)n2)n1 [Example 71, 3-[4-Amino-6-(methyl-phenyl-amino)-[1,3,5]triazin-2-yl]-[1,2,4]oxadiazole-5-carboxylic acid benzylamide] | 5.52 | 
 | 7.21 | Cc1ccc(-c2nc(-c3nc(N)nc(N(C)c4ccccc4)n3)no2)o1 [Example 19, N-Methyl-6-[5-(5-methyl-furan-2-yl)-[1,2,4]oxadiazol-3-yl]-N-phenyl-[1,3,5]triazine-2,4-diamine] |  | 
 | > 6.30 | CN(c1nc(N)nc(-c2noc(-c3ccco3)n2)n1)c1cccc(F)c1F [Example 34, 6-(5-Furan-2-yl-[1,2,4]oxadiazol-3-yl)-N-methyl-N-(2,3-difluorophenyl)-[1,3,5]triazine-2,4-diamine] |  | 
 | > 5.30 | CN(c1nc(N)nc(-c2noc(-c3ccco3)n2)n1)c1ccccc1Cl [Example 17, N-(2-Chloro-phenyl)-6-(5-furan-2-yl-[1,2,4]oxadiazol-3-yl)-N-methyl-[1,3,5]triazine-2,4-diamine] |  | 
 |  | Nc1nc(Nc2ccccc2)nc(-c2noc(-c3ccc(OCC(F)(F)F)nc3)n2)n1 [Example 41, 2-N-Phenyl-6-{5-[6-(2,2,2-trifluoroethoxy)pyridin-3-yl]-1,2,4-oxadiazol-3-yl}-1,3,5-triazine-2,4-diamine] | 6.48 | pIC50 (Nav 1.7 [5]): 6.17
 | > 6.00 | CN(c1cccc(C(F)(F)F)c1)c1nc(N)nc(-c2noc(-c3ccco3)n2)n1 [Example 33] |  | 
 |  | CN(c1ccccc1)c1nc(N)nc(-c2noc(-c3ccc(COCC(F)(F)F)nc3)n2)n1 [Example 291, 2-N-Methyl-2-N-phenyl-6-(5-{6-[(2,2,2-trifluoroethoxy)methyl]pyridin-3-yl}-1,2,4-oxadiazol-3-yl)-1,3,5-triazine-2,4-diamine] |  | pIC50 (Nav 1.7 [6]): 7.14
6.50 |  | Nc1nc(Nc2ccccc2)nc(-c2noc(-c3ccccn3)n2)n1 [Example 39, N-Phenyl-6-(pyridin-2-yl-[1,2,4]oxadiazol-3-yl)-[1,3,5]triazine-2,4-diamine] | 6.05 | 
 |  | CN(c1ccccc1)c1nc(N)nc(-c2noc(-c3ncccc3Br)n2)n1 [Example 43, 6-[5-(3-Bromopyridin-2-yl)-[1,2,4]oxadiazol-3-yl]-N-methyl-N-phenyl-[1,3,5]triazine-2,4-diamine] | 5.99 | pIC50 (Nav 1.7 [5]): 6.99
6.96 |  | CN(c1ccccc1)c1nc(N)nc(-c2noc(-c3ccc(OCC(F)(F)F)nc3)n2)n1 [Example 67, N-Methyl-N-phenyl-6-{5-[6-(2,2,2-trifluoroethoxy)-pyridin-3-yl]-[1,2,4]oxadiazol-3-yl}-[1,3,5]triazine-2,4-diamine] | 5.15 | analgesic efficacy in FCA test ([1]; 3 mg/kg p.o.): efficacious
6.25 |  | CN(c1ccccc1)c1nc(N)nc(-c2noc(-c3nccs3)n2)n1 [Example 125, N-Methyl-N-pheny!-6-(5-thiazol-2-yl-[1,2,4]oxadiazol-3-yl)-[1,3,5]triazine-2,4-diamine] |  | analgesic efficacy in FCA test ([1]; 1 mg/kg p.o.): efficacious; pIC50 (Nav1.5 [7]): 6.04
 | > 6.30 | Nc1nc(Nc2cccc(Cl)c2)nc(-c2noc(-c3ccco3)n2)n1 [Example 32, N-(3-Chloro-phenyl)-6-(5-furan-2-yl-[1,2,4]oxadiazol-3-yl)-[1,3,5]triazine-2,4-diamine] |  | 
6.73 |  | CN(c1cccc(Cl)c1)c1nc(N)nc(-c2noc(-c3ccco3)n2)n1 [Example 7, 6-(5-Furan-2-yl-[1,2,4]oxadiazol-3-yl)-N-methyl-N-(3-chlorophenyl)-[1,3,5]triazine-2,4-diamine] |  | pIC50 (Nav1.5 [7]): 6.07
 |  | CN(c1ccccc1)c1nc(N)nc(-c2noc(C(=O)NC3CCCC3)n2)n1 [Example 72, 3-[4-Amino-6-(methyl-phenyl-amino)-[1,3,5]triazin-2-yl]-[1,2,4]oxadiazole-5-carboxylic acid cyclopentylamide] | 5.22 | pIC50 (Nav 1.7 [5]): 6.54
 | > 5.52 | CN(Cc1ccccc1)c1nc(N)nc(-c2noc(-c3ccco3)n2)n1 [Example 20, N-Benzyl-6-(5-furan-2-yl-[1,2,4]oxadiazol-3-yl)-N-methyl-[1,3,5]triazine-2,4-diamine] |  | 
 | > 5.30 | Cc1ccccc1N(C)c1nc(N)nc(-c2noc(-c3ccco3)n2)n1 [Example 18, 6-(5-Furan-2-yl-[1,2,4]oxadiazol-3-yl)-N-methyl-N-o-tolyl-[1,3,5]triazine-2,4-diamine] |  | 
